Experimental data from PubChem BioAssay (NCI).
Values joined by “and” are separate entries in the source; they are usually repeats but may differ in a detail not shown here. Identical values can stand only once.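 In this assay, cells in 96-well plates receive the compound at five concentrations for 48 hours. Endpoints are linearly interpolated between the surrounding concentrations. At the GI50, growth is halved. Definition used: TGI = concentration required for complete inhibition of growth.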

Tests used:
Experiment in all cases: NCI anticancer screen, dose series, 48 h
UACC-62 melanoma = system: UACC-62 melanoma
U251 CNS = system: U251 CNS
A549 NSCLC = system: A549 NSCLC
KM20L2 colon = system: KM20L2 colon
LXFL 529 NSCLC = system: LXFL 529 NSCLC
OVCAR-3 ovarian = system: OVCAR-3 ovarian
A498 renal = system: A498 renal
NCI/ADR-RES ovarian = system: NCI/ADR-RES ovarian
PC-3 prostate = system: PC-3 prostate
SF-295 CNS = system: SF-295 CNS

| SMILES | TGI (UACC-62 melanoma) | TGI (U251 CNS) | TGI (A549 NSCLC) | TGI (KM20L2 colon) | TGI (LXFL 529 NSCLC) | TGI (OVCAR-3 ovarian) | TGI (A498 renal) | GI50 (UACC-62 melanoma) | GI50 (U251 CNS) | GI50 (NCI/ADR-RES ovarian) | TGI (NCI/ADR-RES ovarian) | GI50 (A549 NSCLC) | GI50 (PC-3 prostate) | TGI (PC-3 prostate) | GI50 (SF-295 CNS) | TGI (SF-295 CNS) | GI50 (OVCAR-3 ovarian) | GI50 (A498 renal) |
| --- | --- | --- | --- | --- | --- | --- | --- | --- | --- | --- | --- | --- | --- | --- | --- | --- | --- | --- |
| COC(=O)C1CC(OC(C)=O)C=C2C(=O)CCC21 (stereo not drawn) | 35.9 µM | 80.9 µM | > 100 µM | 70.1 µM | 39.3 µM | 31.2 µM | > 100 µM |  |  |  |  |  |  |  |  |  |  |  |
| COC(=O)c1c2c(c(C)[n+]([O-])c1C)C(=O)C=C(NCc1cccc(Cl)c1)C2=O | 0.459 µM | 1.55 µM | 2.22 µM |  |  | 0.665 µM | 2.46 µM | 0.0741 µM | 0.367 µM | 0.307 µM | 1.79 µM | 0.462 µM | 0.257 µM | 2.6 µM | 0.422 µM | 1.66 µM | 0.221 µM | 1.21 µM |
| NC(=O)c1cccc(OCC(O)CO)c1 (stereo not drawn) | > 100 µM | > 100 µM | > 100 µM |  |  | > 100 µM | > 100 µM |  |  |  | > 100 µM |  |  | > 100 µM |  | > 100 µM |  |  |
| COc1cc(NS(C)(=O)=O)ccc1NCc1c2ccccc2nc2ccccc12 | > 100 µM | > 100 µM | > 100 µM | > 100 µM | > 100 µM | > 100 µM |  |  |  |  |  |  |  |  |  | > 100 µM |  |  |
| Cc1nc(N)nc(N)c1CCCc1ccccc1 | > 100 µM | > 100 µM | > 100 µM | > 100 µM | > 100 µM | > 100 µM |  |  |  |  |  |  |  |  |  | > 100 µM |  |  |
| Cc1cc(C)c(C(=O)O)c(SSc2cc(C)cc(C)c2C(=O)O)c1 | > 100 µM | > 100 µM | > 100 µM | > 100 µM | > 100 µM |  | > 100 µM |  |  |  |  |  |  |  |  | > 100 µM |  |  |
| ClCc1ccccc1Cn1cnc2c(Cl)ncnc21 | 6.66 µM | 6.11 µM | 25.8 µM |  |  | 3.53 µM | 32.2 µM | 3.28 µM | 2.65 µM | 2.21 µM | 4.72 µM | 7.73 µM | 3.03 µM | 10.5 µM | 10.5 µM | 23.3 µM | 1.4 µM | 17.4 µM |
| O=C(C#Cc1ccccc1)C1=Cc2ccccc2OC1 | 4.26 µM | > 100 µM | > 37.6 µM |  |  | 5.35 µM | 39.2 µM |  |  |  | 14.4 µM |  |  | 22.2 µM |  | 48.3 µM |  |  |
| O=C(Nc1ccc(F)cc1)Nc1ccc(Br)c(C(F)(F)F)c1 | 10.1 µM | 7.47 µM | 12.8 µM |  |  | 11.6 µM | 5.15 µM | 2.29 µM | 2.14 µM | 2.51 µM | 10.1 µM | 2.34 µM | 0.847 µM | 9.24 µM | 1.39 µM | 5.62 µM | 1.65 µM | 1.92 µM |
| CC1=NOC(=O)/C1=C/c1ccc([N+](=O)[O-])cc1 | > 100 µM | > 100 µM | > 100 µM | > 100 µM |  | > 100 µM | > 100 µM |  |  |  |  |  |  |  |  | > 100 µM |  |  |
| Cc1ccc2c(c1)C(=O)c1c-2c(OCCCN(C)C)nc2ccccc12 | 4.34 µM | 14.8 µM | 3.19 µM |  |  | 19.8 µM | 14.3 µM | 2.08 µM | 4.13 µM | 1.24 µM | 6.53 µM | 1.46 µM | 2.26 µM | 7.65 µM | 2.87 µM | 14.1 µM | 5.72 µM | 4.02 µM |
| CC(=O)NC(CSC1=C2NC(=O)\C=C/C=C/C=C\C(C)C(O)CC(=O)/C(C)=C\CC(O)/C=C/C(C)C(O)C(C)C=C(C)C(=O)c3c(O)c(C)cc(c3C1=O)C2=O)C(=O)O (stereo not drawn) | > 100 µM | > 100 µM | > 100 µM |  |  | > 100 µM | > 100 µM |  |  |  | > 100 µM |  |  | > 100 µM |  | > 100 µM |  |  |
| COC(=O)Nc1nc2ccc(C(=O)c3ccccc3)cc2[nH]1 | > 100 µM | > 100 µM | > 100 µM |  |  | 0.864 µM and 0.415 µM | 8.9 µM and 3.26 µM | 0.476 µM and 0.463 µM | 0.5 µM and 0.398 µM | 0.346 µM and 0.357 µM |  | 0.605 µM and 0.534 µM | 0.405 µM and 0.25 µM | > 100 µM and 19.1 µM | 0.4 µM and 0.255 µM | > 60.5 µM | 0.324 µM and 0.172 µM | 0.314 µM and 0.325 µM |
| Nc1nc2cc(CC[C@H]3C[C@@H](n4ccc5c(N)ncnc54)[C@H](O)[C@@H]3O)ccc2cc1Br | 21.7 µM | 29.8 µM | 34.3 µM |  |  | 26.1 µM | 18.9 µM | 8.95 µM | 13 µM | 10.5 µM | 26.9 µM | 12.4 µM | 11 µM | 25.9 µM | 3.25 µM | 19 µM | 10 µM | 2.38 µM |
| C=C1C(=O)O[C@H]2[C@H]1CC/C(COC(=O)OC/C1=C/CC[C@@]3(C)O[C@H]3[C@H]3OC(=O)[C@@H](CN(C)C)[C@@H]3CC1)=C\CC[C@@]1(C)O[C@@H]21 | 5.13 µM | 12.5 µM | 24.3 µM |  |  | 1.7 µM | 21.8 µM | 1.85 µM | 3.3 µM | 12.8 µM | 29.7 µM | 10.8 µM | 2.7 µM | 7.89 µM | 12.1 µM | 24.9 µM | 0.501 µM | 8.29 µM |
| Cc1nc2ccccn2c1NC(=O)NNC(=S)Nc1ccc(F)cc1 | > 100 µM | > 100 µM | > 100 µM |  |  | > 100 µM | > 100 µM | > 100 µM | > 100 µM | > 100 µM | > 100 µM | > 100 µM | > 100 µM | > 100 µM | > 100 µM | > 100 µM | > 100 µM | > 100 µM |
| C=C1SC(=Nc2ccccc2Cl)N(C(=O)c2sc3ccccc3c2Cl)C12CCCCC2 | > 100 µM | > 100 µM | > 100 µM |  |  | 93.4 µM | 74.6 µM | 22.8 µM | 4.42 µM | 3.51 µM | > 100 µM | 4.31 µM | 4.51 µM | > 100 µM | 2.31 µM | 23 µM | 6.56 µM | 2.77 µM |
| O=C1C(=O)c2ccccc2C(O)=C1CCCc1ccc(C2CCCCC2)cc1 | 19.4 µM | > 100 µM | > 100 µM |  |  | 15.2 µM | 20.9 µM | 0.816 µM | 6.42 µM | 5.66 µM | 76.5 µM | 3.93 µM | 0.722 µM | 44.8 µM | 1.89 µM | 6.36 µM | 0.96 µM | 2.35 µM |
